Results taken from paper PMC9060465 (Proceedings of the National Academy of Sciences of the …, 2022).
Each block holds one compound with its values, some of them ahead of it.

Key:
[1] = target: T1, ECD of human GLP-1R (amino acids 24 to 145) (Homo sapiens, UniProt P43220); test: GLP-1R extracellular domain binding by surface plasmon resonance; settings: SPR, 1:1 kinetic binding model; representative of n=3
T1 construct: GLP-1R (amino acids 24 to 145); 6His; made in house; host or cells: CHO cells
T1 sequence (P43220 24-145): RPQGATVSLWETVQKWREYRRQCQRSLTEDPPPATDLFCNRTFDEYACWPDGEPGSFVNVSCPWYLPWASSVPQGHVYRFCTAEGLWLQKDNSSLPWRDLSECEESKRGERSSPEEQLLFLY
Excerpt: DNA encoding each protein was transfected into CHO cells for expression. After expression, the proteins were purified by affinity chromatography (HIS-Trap Ni, Cytiva) followed by size exclusion chromatography using a HiLoad 26/600 Superdex 75pg column (Cytiva) with PBS buffer. […] Surface plasmon resonance measurements were made using a Biacore T200 (Cytiva) and analyzed using T200 Evaluation Software Version 3.1. Receptor ectodomain proteins were covalently immobilized (∼250 resonance units) on Sensor Chip CM4 BR100534 using the Amine coupling Immobilization Wizard in the Biacore T200 Control Software Version 2.0.2. Running buffer was HBS-EP (10 mM Hepes, 150 mM NaCl, 3 mM EDTA, 0.05% P20 [pH 7.6]; Teknova). Concentration series for each sample were made by serial dilution in running buffer. The samples were injected for 150 sec at a 30-µL/min flow rate, followed by 300 sec of dissociation. The surface was regenerated between samples with 10 mM glycine (pH 1.7).
Fig. S10. Receptor extracellular domain (ECD) binding affinity of peptides. Purified GIPR (left column) and GLP-1R (right column) extracellular domains were immobilized to biosensor […]
mM). […]
(§1) and efficacy (% Top) of ligands to induce Gα s -GTPγS binding and cAMP accumulation in HEK293 cells expressing GIPR were determined. The equilibrium affinity (KD) of ligands for the immobilized ectodomain of the GIPR were quantified by surface plasmon resonance. […]
(§2) Functional potency (EC50) and efficacy (% Top) of ligands to induce Gα s-GTPγS binding and cAMP accumulation in HEK293 cells expressing GLP-1R were determined. The equilibrium affinity (KD) of ligands for the immobilized ectodomain of the GLP-1R were quantified by surface plasmon resonance. […]
(§3) recruitment to the GLP-1R were determined using the NanoBRET approach. The potency (EC50) and efficacy (% Top) for ligands to induce GLP-1R Internalization were determined using diffusion-enhanced resonance energy transfer. […]
relative efficacy for NanoBRET assays. SPR data were analyzed using T200 evaluation software (Cytiva). […] ND, not determined. […]

GLP-1R [2] = target: T2, GLP-1R (Homo sapiens, UniProt P43220); test: GLP-1R low density cAMP accumulation in HEK293 cells; format: cell-based; parameters: expressed in transfected cells; host or cells: HEK293; settings: efficacy (% Top), normalized to GLP-1(7-36); (SEM)
Description: (§4) Fig. 4. […] (B) Ligand-induced GTPγS binding of Gαs was performed using the GIPR-expressing membranes. […] (C) Agonist-stimulated cAMP production was measured in human GIPR expressing HEK293 cells. […] (E) Ligand-induced GTPγS binding of Gαs was performed using the GLP-1R-expressing membranes. […] (F) Agonist-stimulated cAMP production was measured in human GLP-1R-expressing HEK293 cells. […] Data presented are representative of n ≥ 3 independent experiments. Summarized data are shown in SI Appendix, Table 2. log M; log Molar.
(§5) We note that the albumin-binding propensity of fatty acid-modified peptides can confound a pharmacological comparison of molecules, given the common use of albumin and serum as nonspecific blocking agents in biological assays. Therefore, to obviate this, entirely albumin-free assays supplemented with bovine casein or bacitracin were used to prevent nonspecific binding ([10]). […]
(§6) Middle Panel: The affinity (Ki) of ligands for the GLP-1R was […]
as §2
(§7) SPR data were analyzed using T200 evaluation software (Cytiva). All data are presented as geometric means with SEM and n values according to established practices. ND, not determined. NA, not applicable.
Target sequence in this assay (P43220 24-463): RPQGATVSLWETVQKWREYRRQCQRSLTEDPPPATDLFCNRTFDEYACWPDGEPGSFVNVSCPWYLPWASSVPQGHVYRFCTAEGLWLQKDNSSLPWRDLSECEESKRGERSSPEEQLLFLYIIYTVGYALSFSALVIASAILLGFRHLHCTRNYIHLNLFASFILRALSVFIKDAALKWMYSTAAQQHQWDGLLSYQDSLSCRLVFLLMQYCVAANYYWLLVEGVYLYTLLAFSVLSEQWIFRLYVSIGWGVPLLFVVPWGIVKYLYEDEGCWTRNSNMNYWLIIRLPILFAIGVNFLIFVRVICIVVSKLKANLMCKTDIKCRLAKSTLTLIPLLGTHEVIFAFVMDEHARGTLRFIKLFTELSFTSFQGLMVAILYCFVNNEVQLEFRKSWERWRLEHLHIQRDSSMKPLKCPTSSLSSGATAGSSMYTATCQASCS

GLP-1R [3] = target: T2, GLP-1R; test: Ligand-induced GLP-1R internalization, SNAP-GLP-1R HEK293 cells; format: cell-based; settings: efficacy (% Top), percent internalization compared to maximal GLP-1; (SEM)
Target sequence in this assay (P43220 24-463): as above

GLP-1R [4] = target: T2, GLP-1R; test: GRK2 recruitment to the GLP-1R, NanoBRET; format: cell-based; parameters: expressed in transfected cells; host or cells: freestyle HEK cells; settings: efficacy (% Top), relative to maximal GLP-1; (SEM)
Description: After 48 h, transfected cells were incubated in phosphate-buffered saline (PBS) containing 0.1% (wt/vol) bovine casein and varying concentrations of the ligands. […]
The potency (EC50) and efficacy (% Top) for ligands to induce GLP-1R Internalization were
determined using diffusion-enhanced resonance energy transfer.
relative efficacy for NanoBRET assays. SPR data were analyzed using T200 evaluation software (Cytiva). All data are presented as geometric means with SEM and n values
according to established practices. ND, not determined. NA, not applicable.
Target sequence in this assay (P43220 24-463): as above
Target sequence in this assay (P25098 whole entry partner): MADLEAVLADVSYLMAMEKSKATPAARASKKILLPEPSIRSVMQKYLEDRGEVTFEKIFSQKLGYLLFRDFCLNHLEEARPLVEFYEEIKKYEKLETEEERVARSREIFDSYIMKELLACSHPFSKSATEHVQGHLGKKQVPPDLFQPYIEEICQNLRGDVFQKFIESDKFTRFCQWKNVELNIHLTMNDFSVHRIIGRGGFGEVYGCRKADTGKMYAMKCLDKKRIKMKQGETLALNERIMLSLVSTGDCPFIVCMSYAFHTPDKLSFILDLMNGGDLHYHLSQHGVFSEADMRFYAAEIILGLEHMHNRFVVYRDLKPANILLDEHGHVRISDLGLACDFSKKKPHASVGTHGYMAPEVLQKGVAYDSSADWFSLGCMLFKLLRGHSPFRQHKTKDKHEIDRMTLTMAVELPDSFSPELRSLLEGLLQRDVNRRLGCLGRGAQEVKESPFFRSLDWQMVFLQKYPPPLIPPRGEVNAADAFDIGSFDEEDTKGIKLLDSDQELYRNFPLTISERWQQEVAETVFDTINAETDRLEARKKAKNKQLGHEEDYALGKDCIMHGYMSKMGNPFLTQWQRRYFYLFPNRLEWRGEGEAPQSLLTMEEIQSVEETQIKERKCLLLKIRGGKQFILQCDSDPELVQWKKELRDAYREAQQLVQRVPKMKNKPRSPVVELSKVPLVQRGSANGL

GLP-1R [5] = target: T2, GLP-1R; test: GLP-1R Gαs [35S]GTPγS binding, GLP-1R-expressing membranes; format: biochemical; parameters: expressed in transfected cells; host or cells: HEK293; settings: efficacy (% Top), normalized to GLP-1(7-36); (SEM)
Description: as §4, §5, §6, §2, §7
Target sequence in this assay (P43220 24-463): as the sequence (P43220 24-463) above

GLP-1R [6] = target: T2, GLP-1R; test: β-arrestin 1 recruitment to the GLP-1R, NanoBRET; format: cell-based; parameters: expressed in transfected cells; settings: efficacy (% Top), relative efficacy to GLP-1; (SEM)
Description: Functional potency (EC50) […]
as §1, with “resonance. Middle Panel: The affinity (Ki) of ligands for the GLP-1R was” for “resonance.”
as §2, §3
Target sequence in this assay (P43220 24-463): as above
Target sequence in this assay (P49407 whole entry partner): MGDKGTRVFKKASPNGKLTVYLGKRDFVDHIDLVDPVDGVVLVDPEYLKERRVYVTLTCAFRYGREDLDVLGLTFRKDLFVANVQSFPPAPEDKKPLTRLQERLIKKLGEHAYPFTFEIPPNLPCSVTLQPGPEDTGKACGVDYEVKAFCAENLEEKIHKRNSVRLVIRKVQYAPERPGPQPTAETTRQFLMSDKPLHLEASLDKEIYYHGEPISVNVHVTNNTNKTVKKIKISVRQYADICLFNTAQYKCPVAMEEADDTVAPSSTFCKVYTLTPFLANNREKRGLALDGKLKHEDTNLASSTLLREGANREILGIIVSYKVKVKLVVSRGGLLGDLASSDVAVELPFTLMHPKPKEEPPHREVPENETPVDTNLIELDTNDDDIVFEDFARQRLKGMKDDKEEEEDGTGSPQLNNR
relative efficacy for NanoBRET assays. SPR data were analyzed using T200 evaluation software (Cytiva). All data are presented as geometric means with SEM and n values according to established practices. ND, not determined. NA, not applicable.

- GLP-1R ECD kinetic KD [1]: No kinetic fit possible
SMILES: CC[C@H](C)[C@H](NC(=O)[C@H](CO)NC(=O)[C@H](Cc1ccc(O)cc1)NC(=O)[C@H](CC(=O)O)NC(=O)[C@H](CO)NC(=O)[C@@H](NC(=O)[C@H](Cc1ccccc1)NC(=O)[C@@H](NC(=O)CNC(=O)[C@H](CCC(=O)O)NC(=O)[C@H](C)NC(=O)[C@@H](N)Cc1ccc(O)cc1)[C@@H](C)O)[C@@H](C)CC)C(=O)N[C@@H](C)C(=O)N[C@@H](CCSC)C(=O)N[C@@H](CC(=O)O)C(=O)N[C@@H](CCCCN)C(=O)N[C@H](C(=O)N[C@@H](Cc1c[nH]cn1)C(=O)N[C@@H](CCC(N)=O)C(=O)N[C@@H](CCC(N)=O)C(=O)N[C@@H](CC(=O)O)C(=O)N[C@@H](Cc1ccccc1)C(=O)N[C@H](C(=O)N[C@@H](CC(N)=O)C(=O)N[C@@H](Cc1c[nH]c2ccccc12)C(=O)N[C@@H](CC(C)C)C(=O)N[C@@H](CC(C)C)C(=O)N[C@@H](C)C(=O)N[C@@H](CCC(N)=O)C(=O)N[C@@H](CCCCN)C(=O)NCC(=O)N[C@@H](CCCCN)C(=O)N[C@@H](CCCCN)C(=O)N[C@@H](CC(N)=O)C(=O)N[C@@H](CC(=O)O)C(=O)N[C@@H](Cc1c[nH]c2ccccc12)C(=O)N[C@@H](CCCCN)C(=O)N[C@@H](Cc1c[nH]cn1)C(=O)N[C@@H](CC(N)=O)C(=O)N[C@H](C(=O)N[C@H](C(=O)N[C@@H](CCC(N)=O)C(N)=O)[C@@H](C)O)[C@@H](C)CC)C(C)C)[C@@H](C)CC [GIP, reference compound]

SMILES: CC[C@H](C)[C@H](NC(=O)[C@H](CC(C)C)NC(=O)[C@H](Cc1c[nH]c2ccccc12)NC(=O)[C@H](CCC(N)=O)NC(=O)[C@@H](NC(=O)[C@H](Cc1ccccc1)NC(=O)[C@H](C)NC(=O)[C@H](CCCCNC(=O)COCCOCCNC(=O)COCCOCCNC(=O)CC[C@H](NC(=O)CCCCCCCCCCCCCCCCCCC(=O)O)C(=O)O)NC(=O)[C@H](CCC(N)=O)NC(=O)[C@H](C)NC(=O)[C@@H](NC(=O)[C@H](CCCCN)NC(=O)[C@H](CC(=O)O)NC(=O)[C@H](CC(C)C)NC(=O)C(C)(C)NC(=O)[C@@H](NC(=O)[C@H](CO)NC(=O)[C@H](Cc1ccc(O)cc1)NC(=O)[C@H](CC(=O)O)NC(=O)[C@H](CO)NC(=O)[C@@H](NC(=O)[C@H](Cc1ccccc1)NC(=O)[C@@H](NC(=O)CNC(=O)[C@H](CCC(=O)O)NC(=O)C(C)(C)NC(=O)[C@@H](N)Cc1ccc(O)cc1)[C@@H](C)O)[C@@H](C)O)[C@@H](C)CC)[C@@H](C)CC)C(C)C)C(=O)N[C@@H](C)C(=O)NCC(=O)NCC(=O)N1CCC[C@H]1C(=O)N[C@@H](CO)C(=O)N[C@@H](CO)C(=O)NCC(=O)N[C@@H](C)C(=O)N1CCC[C@H]1C(=O)N1CCC[C@H]1C(=O)N1CCC[C@H]1C(=O)N[C@@H](CO)C(N)=O [Tzp, tirzepatide]
- GLP-1R Low Density cAMP Top (GLP-1R [2]): 99.5 (4.5) %
- GLP-1R Internalization Top (GLP-1R [3]): 41.6 (3.0) %
- GLP-1R GRK2 Recruitment Top (GLP-1R [4]): 24.7 (2.8 ) %
- GLP-1R GTPγS Recruitment Top (GLP-1R [5]): 43.9 (1.7) %
- GLP-1R β-Arr1 Recruitment Top (GLP-1R [6]): 7.55 (0.93) %
